Reference: patent US20250230193A1, “CYCLIC COMPOUND HAVING SELECTIVE KRAS INHIBITORY EFFECT ON HRAS AND NRAS” (CHUGAI SEIYAKU KABUSHIKI KAISHA, priority 2022, published 2025)

How the values were obtained:
[1] = molecular target: GDP-bound KRAS wild-type protein (Homo sapiens, UniProt P01116); assay: Binding to KRAS by surface plasmon resonance (SPR), Single Cycle Kinetics; details: SPR, Single Cycle Kinetics; GDP-bound KRAS wild-type protein
[2] = molecular target: GDP-bound NRAS wild-type protein (Homo sapiens, UniProt P01111); assay: Binding to NRAS by surface plasmon resonance (SPR), Single Cycle Kinetics; details: SPR; KD ratio class
[3] = molecular target: GDP-bound HRAS wild-type protein (Homo sapiens, UniProt P01112); assay: Binding to HRAS by surface plasmon resonance (SPR), Single Cycle Kinetics; details: SPR; KD ratio class
[4] = system: human lung cancer strain NCI-H441; details: read-out: NCI-H441 IC50; NCI-H441 cells, 4 days, CellTiter-Glo

GDP-bound HRAS wild-type protein, sequence (P01112 whole entry): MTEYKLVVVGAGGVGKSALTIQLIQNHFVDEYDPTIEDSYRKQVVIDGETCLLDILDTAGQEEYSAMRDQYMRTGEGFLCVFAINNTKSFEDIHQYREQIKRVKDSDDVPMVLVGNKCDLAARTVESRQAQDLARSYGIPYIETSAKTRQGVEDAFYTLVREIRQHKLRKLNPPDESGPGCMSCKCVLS
GDP-bound NRAS wild-type protein, sequence (P01111 whole entry): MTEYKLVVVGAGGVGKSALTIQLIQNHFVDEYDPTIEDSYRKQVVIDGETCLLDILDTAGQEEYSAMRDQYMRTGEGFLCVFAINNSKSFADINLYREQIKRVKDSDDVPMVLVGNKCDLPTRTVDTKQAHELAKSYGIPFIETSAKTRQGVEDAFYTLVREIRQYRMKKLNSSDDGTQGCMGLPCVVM

SMILES	Kd [1] [nM]	NRAS/KRAS (ratio of KD value for GDP-bound NRAS wild-type protein to KD value for KRAS) [2]	HRAS/KRAS (ratio of KD value for GDP-bound HRAS wild-type protein to KD value for KRAS) [3]	IC50 [4] [nM]
C=CC[C@H]1C(=O)N[C@@H]([C@@H](C)CC)C(=O)N(C)CC(=O)N(C)[C@H]2C/C=C\CCN(C2=O)[C@@H](CC2CCC(F)(F)CC2)C(=O)N(C)CC(=O)N[C@@H](CCc2cc(F)c(C(F)(F)F)c(F)c2)C(=O)N2C[C@H](OCC)C[C@H]2C(=O)NC2(CCC2)C(=O)N(C)[C@@H](C2CCCC2)C(=O)N(C)[C@H](C(=O)N(C)C)CC(=O)N1C [PP1454]	0.096	A (a compound having 10 or more and less than 20 is denoted as A)	A (a compound having 10 or more and less than 20 is denoted as A)	15.2
CCO[C@@H]1C[C@H]2C(=O)NC3(CCCC3)C(=O)N(C)[C@@H](C3CCCC3)C(=O)N(C)[C@H](C(=O)N(C)C)CC(=O)N(C)[C@@H](C)C(=O)N[C@@H]([C@@H](C)CC)C(=O)N(C)CC(=O)N(C)[C@H]3C/C=C\CCN(C3=O)[C@@H](CC3CCC(F)(F)CC3)C(=O)N(C)CC(=O)N[C@@H](CCc3cc(F)c(C(F)(F)F)c(F)c3)C(=O)N2C1 [PP1456]	0.12	A (a compound having 10 or more and less than 20 is denoted as A)	A (a compound having 10 or more and less than 20 is denoted as A)	90
CC[C@H](C)[C@@H]1NC(=O)[C@H](CC)N(C)C(=O)C[C@@H](C(=O)N(C)C)N(C)C(=O)[C@H](C2CCCC2)N(C)C(=O)C2(CCC2)NC(=O)[C@@H]2C[C@H](C)CN2C(=O)[C@H](CCc2cc(F)c(C(F)(F)F)c(F)c2)NC(=O)CN(C)C(=O)[C@H](CC2CCC(F)(F)CC2)N2CC/C=C\C[C@@H](C2=O)N(C)C(=O)CN(C)C1=O [PP1457]	0.15	A (a compound having 10 or more and less than 20 is denoted as A)	A (a compound having 10 or more and less than 20 is denoted as A)	30.4
CC[C@H](C)[C@@H]1NC(=O)[C@H](CC)N(C)C(=O)C[C@@H](C(=O)N(C)C)N(C)C(=O)[C@H](C2CCCC2)N(C)C(=O)C2(CCC2)NC(=O)[C@@H]2CC(F)(F)CN2C(=O)[C@H](CCc2cc(F)c(C(F)(F)F)c(F)c2)NC(=O)CN(C)C(=O)[C@H](CC2CCCCC2)N2CC/C=C\C[C@@H](C2=O)N(C)C(=O)CN(C)C1=O [PP1462]	0.12	A (a compound having 10 or more and less than 20 is denoted as A)	A (a compound having 10 or more and less than 20 is denoted as A)	27.5
CCO[C@@H]1C[C@H]2C(=O)NC3(CCC3)C(=O)N(C)[C@@H](C3CCCC3)C(=O)N(C)[C@H](C(=O)N(C)C)CC(=O)N(C)[C@@H](CSC)C(=O)N[C@@H]([C@@H](C)CC)C(=O)N(C)CC(=O)N(C)[C@H]3C/C=C\CCN(C3=O)[C@@H](CC3CCCCC3)C(=O)N(C)CC(=O)N[C@@H](CCc3cc(F)c(C(F)(F)F)c(F)c3)C(=O)N2C1 [PP1463]	0.13	A (a compound having 10 or more and less than 20 is denoted as A)	A (a compound having 10 or more and less than 20 is denoted as A)	44.5
CCC[C@H]1C(=O)N[C@@H]([C@@H](C)CC)C(=O)N(C)CC(=O)N(C)[C@H]2C/C=C\CCN(C2=O)[C@@H](CC2CCCCC2)C(=O)N(C)CC(=O)N[C@@H](CCc2cc(F)c(C(F)(F)F)c(F)c2)C(=O)N2C[C@H](OCC)C[C@H]2C(=O)NC2(CCC2)C(=O)N(C)[C@@H](C2CCCC2)C(=O)N(C)[C@H](C(=O)N(C)C)CC(=O)N1C [PP1464]	0.15	A (a compound having 10 or more and less than 20 is denoted as A)	A (a compound having 10 or more and less than 20 is denoted as A)	32.3
CCO[C@@H]1C[C@H]2C(=O)NC3(CCC3)C(=O)N(C)[C@@H](C3CCCC3)C(=O)N(C)[C@H](C(=O)N(C)C)CC(=O)N(C)[C@@H](CC)C(=O)N[C@@H]([C@@H](C)CC)C(=O)N(C)CC(=O)N(C)[C@H]3C/C=C\CCN(C3=O)[C@@H](CC3CCCCC3)C(=O)N(C)CC(=O)N[C@@H](CCc3cc(F)c(C(F)(F)F)c(F)c3)C(=O)N2C1 [PP1466]	0.14	A (a compound having 10 or more and less than 20 is denoted as A)	A (a compound having 10 or more and less than 20 is denoted as A)	33.2
CCO[C@@H]1C[C@H]2C(=O)NC3(CCC3)C(=O)N(C)[C@@H](C3CCCC3)C(=O)N(C)[C@H](C(=O)N(C)C)CC(=O)N(C)[C@@H](CC(C)C)C(=O)N[C@@H]([C@@H](C)CC)C(=O)N(C)CC(=O)N(C)[C@H]3C/C=C\CCN(C3=O)[C@@H](Cc3ccc(F)cc3)C(=O)N(C)CC(=O)N[C@@H](CCc3cc(F)c(C(F)(F)F)c(F)c3)C(=O)N2C1 [PP1488]	0.081	A (a compound having 10 or more and less than 20 is denoted as A)	B (a compound having 3 or more and less than 10 is denoted as B)	23.2
CC[C@H](C)[C@@H]1NC(=O)[C@H](CC2CC2)N(C)C(=O)C[C@@H](C(=O)N(C)C)N(C)C(=O)[C@H](C2CCCC2)N(C)C(=O)C2(CCC2)NC(=O)[C@@H]2C[C@@H](F)CN2C(=O)[C@H](CCc2cc(F)c(C(F)(F)F)c(F)c2)NC(=O)CN(C)C(=O)[C@H](Cc2ccc(C(F)(F)F)cc2)N2CC/C=C\C[C@@H](C2=O)N(C)C(=O)CN(C)C1=O [PP1497]	0.022	A (a compound having 10 or more and less than 20 is denoted as A)	A (a compound having 10 or more and less than 20 is denoted as A)	10.7
CC[C@H](C)[C@@H]1NC(=O)[C@H](CC2CC2)N(C)C(=O)C[C@@H](C(=O)N(C)C)N(C)C(=O)[C@H](C2CCCC2)N(C)C(=O)C2(CCC2)NC(=O)[C@@H]2C[C@@H](C(F)(F)F)CN2C(=O)[C@H](CCc2cc(F)c(C(F)(F)F)c(F)c2)NC(=O)CN(C)C(=O)[C@H](Cc2ccc(C(F)(F)F)cc2)N2CC/C=C\C[C@@H](C2=O)N(C)C(=O)CN(C)C1=O [PP1498]	0.069	A (a compound having 10 or more and less than 20 is denoted as A)	A (a compound having 10 or more and less than 20 is denoted as A)	10.3
CC[C@H](C)[C@@H]1NC(=O)[C@H](CC2CC2)N(C)C(=O)C[C@@H](C(=O)N2CCCC2)N(C)C(=O)[C@H](C2CCCC2)N(C)C(=O)C2(CCC2)NC(=O)[C@@H]2C[C@H](C)CN2C(=O)[C@H](CCc2cc(F)c(C(F)(F)F)c(F)c2)NC(=O)CN(C)C(=O)[C@H](Cc2ccc(C(F)(F)F)cc2)N2CC/C=C\C[C@@H](C2=O)N(C)C(=O)CN(C)C1=O [PP1510]	0.11	AA (a compound having 20 or more is denoted as AA)	A (a compound having 10 or more and less than 20 is denoted as A)	34.5
CC[C@H](C)[C@@H]1NC(=O)[C@H](CC2CC2)N(C)C(=O)C[C@@H](C(=O)N(C)C)N(C)C(=O)[C@H](C2CCCC2)N(C)C(=O)C2(CCCC2)NC(=O)[C@@H]2C[C@H](C)CN2C(=O)[C@H](CCc2cc(F)c(C(F)(F)F)c(F)c2)NC(=O)CN(C)C(=O)[C@H](Cc2ccc(C(F)(F)F)cc2)N2CC/C=C\C[C@@H](C2=O)N(C)C(=O)CN(C)C1=O [PP1511]	0.099	AA (a compound having 20 or more is denoted as AA)	A (a compound having 10 or more and less than 20 is denoted as A)	13.7
CCO[C@@H]1C[C@H]2C(=O)NC3(CC(F)(F)C3)C(=O)N(C)[C@@H](C3CCCC3)C(=O)N(C)C(C3CCCCC3)CC(=O)N(C)[C@@H](COC)C(=O)N[C@@H]([C@@H](C)CC)C(=O)N(C)CC(=O)N(C)[C@H]3C/C=C\CCN(C3=O)[C@@H](Cc3ccc(C(F)(F)F)cc3)C(=O)N(C)CC(=O)N[C@@H](CCc3cc(F)c(C(F)(F)F)c(F)c3)C(=O)N2C1 (stereo partly shown) [PP1586]	0.76	A (a compound having 10 or more and less than 20 is denoted as A)	A (a compound having 10 or more and less than 20 is denoted as A)	85.5
